Reference: patent publication EP0143987A1, “Therapeutic compositions endowed with antiviral activity” (Stendardi, Anna Gioia, priority 1983, dated 1985)

How the values were obtained:
HSV-1 = experiment: appearance of resistant HSV-1 mutants following treatment; assay type: cell-based; details: for Resistant mutants/10^4 viruses: plaques counted 72 hours later; for HSV-1 mutants resistant, pre-existing within the virus population: approximate restatement of Table 2 (drugs used individually)
Protocol: Finally, tests were carried out which aimed at quantifying the appearance of resistant HSV-1 mutants following treatment with acyclovir and BVDU, used individually or in association. For these tests the two compounds were used in concentrations which were 3.3 times (acyclovir) and 1.4 times (BVDU) the ID 100 value, so as to be able to completerly prevent the multiplication of sensitive viruses. For this 5 purpose, […] Vero cells, infected with HSV-1 at a multiplicity of 0.3 PFU/cell, were seeded on a preformed monolayer of uninfected Vero cells and left to adhere for 4 hours at 35°C in T-199 with 2% serum, in the presence of the inhibitors.
The liquid culture medium was then removed and replaced with new medium containing the inhibitors and 0.75% carboxymethylcellulose.
The number of plaques developed following multiplication of resistant viruses was determined 72 hours later.

[1] = system: herpex simplex virus type 1 (ATCC VR-733); experiment: plaque reduction test in Vero cells; assay type: cell-based; details: mean of three samples, 72 hours, untreated control 134 plaques
Protocol: The mutual synergistic activity of acyclovir and BVDU was evaluated on the herpex simplex virus type 1 (ATCC VR-733), grown in Vero cells (ATCC CCL 81) in MEM T-199 containing 2% calf serum.
The method used was the plaque reduction test /P. Collins et al. (1977) Annals, of the New York Academy of Sciences 284, pp. 49-59/. For this purpose, confluent monolayers of Vero cells, seeded in multi-well plates (diameter 3.5 cm) at a concentration of […] cells/plate, were infected with 150 plaque-forming units (PFU) of HSV-1 per plate.
After an adsorption period of one hour at room temperature and removal of the unadsorbed virus, the monolayers were washed with buffered saline solution and then incubated at 35°C, in 5% CO2, in MEM T-199 containing 2% calf serum and 0.75% carboxymethylcellulose, both in the absence and in the presence of the inhibitors.
72 hours later, the infected monolayers were washed three times with saline solution and dyed with a 0.1% methylene blu solution in order to be able to count the number of lysis plaques resulting from the multiplication of the virus.
The number represent the mean value of three samples, and correspond to the number of plaques obtained in the absence or in the presence of acyclovir and BVDU, used either individually or in association.
The above values were then expressed as percentage of the number of plaques obtained in untreated control cultures and plotted, in the ordinate axis, against the logarithm of the concentration used (in abscissa).
This enabled to determine the concentration of the two drugs (alone or in combination) which were necessary for reducing the number of viral plaques by 100% (ID100) […]

[2] = system: type 2 (HSV-2) herpes simplex viruses; details: background statement; cited from earlier work
[3] = system: type 1 (HSV-1) herpes simplex viruses; details: background statement; cited from earlier work

Structure (SMILES) | Resistant mutants/10^4 viruses (HSV-1; Acyclovir 2.5 μM alone) | HSV-1 mutants resistant, pre-existing within the virus population (HSV-1) | number of plaques ([1]; Acyclovir 0.075 µM alone) | number of plaques ([1]; Acyclovir 0.15 µM alone) | number of plaques ([1]; Acyclovir 0.3 µM alone) | number of plaques ([1]; Acyclovir 0.6 µM alone) | number of plaques ([1]; Acyclovir 1.2 µM alone) | inhibition of the multiplication of HSV-2 [2] | inhibition of the multiplication of HSV-1 [3] | Resistant mutants/10^4 viruses (HSV-1; BVDU 1.0 μM alone) | number of plaques ([1]; BVDU 0.01 µM alone) | number of plaques ([1]; BVDU 0.02 µM alone) | number of plaques ([1]; BVDU 0.04 µM alone) | number of plaques ([1]; BVDU 0.8 µM alone)
Nc1nc2c(ncn2COCCO)c(=O)[nH]1 [Acyclovir, 9-(2-hydroxyethoxymethyl) guanine] | 28.6 /10^4 viruses | ~3 per 1000 sensitive viruses | 111 | 99 | 52 | 8 | 0 | inhibits to an equal extent | inhibits to an equal extent |  |  |  |  | 
O=c1[nH]c(=O)n([C@H]2C[C@H](O)[C@@H](CO)O2)cc1/C=C/Br [BVDU, E-5-(2-bromovinyl)-2'-deoxyuridine] |  | ~1 per 1000 sensitive viruses |  |  |  |  |  | not against HSV-2 | effective against HSV-1 | 13.8 /10^4 viruses | 141 | 131 | 109 | 81
